Measurements as given in ChEMBL document CHEMBL1128717, “2,4-Diaminopyrido[3,2-d]pyrimidine inhibitors of dihydrofolate reductase from Pneumocystis carinii and Toxoplasma gondii” (J Med Chem, 1995).

Assays:
[1] = molecular target: T1, Bifunctional dihydrofolate reductase-thymidylate synthase (Toxoplasma gondii, UniProt Q07422); test: Concentration inhibiting Toxoplasma gondii dihydrofolate reductase
T1 sequence (Q07422 whole entry): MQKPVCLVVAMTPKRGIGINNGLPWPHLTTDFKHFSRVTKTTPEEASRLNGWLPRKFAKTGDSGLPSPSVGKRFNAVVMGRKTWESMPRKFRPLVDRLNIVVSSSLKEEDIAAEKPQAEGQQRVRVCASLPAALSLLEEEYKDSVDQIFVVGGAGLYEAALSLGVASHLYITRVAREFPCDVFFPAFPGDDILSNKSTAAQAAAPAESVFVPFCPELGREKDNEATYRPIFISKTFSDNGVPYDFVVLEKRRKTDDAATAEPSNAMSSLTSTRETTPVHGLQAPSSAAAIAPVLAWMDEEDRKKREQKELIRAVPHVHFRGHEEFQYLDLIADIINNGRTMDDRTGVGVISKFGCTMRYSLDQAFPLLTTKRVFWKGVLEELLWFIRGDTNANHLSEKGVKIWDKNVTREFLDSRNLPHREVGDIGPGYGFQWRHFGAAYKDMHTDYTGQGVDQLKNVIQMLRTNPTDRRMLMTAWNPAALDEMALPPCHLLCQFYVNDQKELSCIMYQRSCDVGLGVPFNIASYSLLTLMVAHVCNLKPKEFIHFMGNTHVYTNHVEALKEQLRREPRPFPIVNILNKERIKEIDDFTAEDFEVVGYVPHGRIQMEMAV

Dihydrofolate reductase [2] = molecular target: T2, Dihydrofolate reductase (Pneumocystis carinii, UniProt P16184)
T2 sequence (P16184 whole entry): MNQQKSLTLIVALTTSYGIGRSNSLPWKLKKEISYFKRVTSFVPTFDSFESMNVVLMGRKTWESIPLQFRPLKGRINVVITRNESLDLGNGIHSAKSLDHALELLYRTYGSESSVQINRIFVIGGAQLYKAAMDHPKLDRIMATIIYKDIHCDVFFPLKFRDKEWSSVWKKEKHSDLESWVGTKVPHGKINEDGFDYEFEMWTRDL
Description: Concentration inhibiting Pneumocystis carinii dihydrofolate reductase

Dihydrofolate reductase [3] = molecular target: T3, Dihydrofolate reductase (Rattus norvegicus, UniProt Q920D2)
T3 sequence (Q920D2 whole entry): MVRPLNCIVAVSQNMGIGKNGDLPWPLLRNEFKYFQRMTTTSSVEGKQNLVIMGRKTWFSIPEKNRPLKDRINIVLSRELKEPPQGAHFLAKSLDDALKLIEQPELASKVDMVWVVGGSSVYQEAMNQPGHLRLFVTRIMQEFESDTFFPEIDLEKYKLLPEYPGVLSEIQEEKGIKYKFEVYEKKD
Description: Concentration inhibiting rat liver dihydrofolate reductase.

| SMILES | IC50 [1] [nM] | IC50 (Dihydrofolate reductase [2]) [nM] | IC50 (Dihydrofolate reductase [3]) [nM] |
| --- | --- | --- | --- |
| CN(Cc1ccc2nc(N)nc(N)c2n1)c1cccc(Cl)c1 | 20 | 2100 | 67 |
| CN(Cc1ccc2nc(N)nc(N)c2n1)c1ccc(Cl)c(Cl)c1 | 98 | 22 | 32 |
| COc1cc(N(C)Cc2ccc3nc(N)nc(N)c3n2)cc(OC)c1OC | 4.7 | 130 | 26 |
| COc1cc(NCc2ccc3nc(N)nc(N)c3n2)cc(OC)c1OC | 82 | 2600 | – |
| COc1ccc(OC)c(NCc2ccc3nc(N)nc(N)c3n2)c1 | 100 | 1400 | 430 |
| CN(Cc1ccc2nc(N)nc(N)c2n1)c1ccc(Cl)cc1 | 15 | 62 | 22 |
